# According to patent publication US20230310428A1, “EGFR INHIBITOR AND PREPARATION METHOD AND USE THEREOF” (HONGYUN BIOTECH CO., LTD., priority 2020, published 2023):
# Where two headings read alike, the source gives them in different places.
# Assays:
# Assay in all cases: Growth inhibitory activity of compounds on BaF3 cell lines stably transfected with kinase (MTS, 48 h)
# Assay type in all cases: cell-based
# [1] = target: T1, various mutants of kinase EGFR (BaF3 cell lines stably transfected with kinase) (Homo sapiens, UniProt P00533, C797S/L858R/T790M)
# T1 construct: expressed in transfected cells; host or cells: BaF3
# Summary of the method: (§1)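 Growth is measured by MTS reduction (OD 490 nm) after 48 h compound exposure at up to 10 µM in 8 steps of 1/3. Inhibition is calculated against a 0.1% DMSO control and cell-free blank, and IC50 is derived from it.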
# [2] = target: T2, various mutants of kinase EGFR (BaF3 cell lines stably transfected with kinase) (Homo sapiens, UniProt P00533)
# T2 construct: other: BaF3 cells stably transfected with EGFR Δ19Del; MTS, 48 h; other: BaF3 cell line stably transfected with EGFR Δ19Del
# Summary of the method: as §1
# [3] = target: T3, various mutants of kinase EGFR (BaF3 cell lines stably transfected with kinase) (Homo sapiens, UniProt P00533, L858R)
# T3 construct: expressed in transfected cells; host or cells: BaF3
# Summary of the method: as §1
# [4] = target: T4, various mutants of kinase EGFR (BaF3 cell lines stably transfected with kinase) (Homo sapiens, UniProt P00533, L858R/T790M)
# T4 construct: expressed in transfected cells; host or cells: BaF3
# Summary of the method: as §1
# [5] = target: T5, various mutants of kinase EGFR (BaF3 cell lines stably transfected with kinase) (Homo sapiens, UniProt P00533, T790M/C797S, form not given)
# T5 construct: other: BaF3 cells stably transfected with EGFR Δ19Del/T790M/C797S; MTS, 48; other: BaF3 cell line stably transfected with EGFR Δ19Del/T790M/C7
# Summary of the method: as §1
# [6] = target: T6, various mutants of kinase EGFR (BaF3 cell lines stably transfected with kinase) (Homo sapiens, UniProt P00533, T790M, form not given)
# T6 construct: other: BaF3 cells stably transfected with EGFR Δ19Del/T790M; MTS, 48 h; other: BaF3 cell line stably transfected with EGFR Δ19Del/T790M; MTS, 48
# Summary of the method: as §1
# [7] = BaF3 cells stably transfected with EGFR L858R/T790M/C797S, read-out: IC50, growth inhibition, L858R/T790M/C797S
# [8] = BaF3 cells stably transfected with EGFR Δ19Del, read-out: IC50, growth inhibition, Δ19Del
# [9] = BaF3 cells stably transfected with EGFR L858R, read-out: IC50, growth inhibition, L858R
# [10] = BaF3 cells stably transfected with EGFR L858R/T790M, read-out: IC50, growth inhibition, L858R/T790M
# [11] = BaF3 cells stably transfected with EGFR Δ19Del/T790M/C797S, read-out: IC50, growth inhibition, Δ19Del/T790M/C797S
# [12] = BaF3 cells stably transfected with EGFR Δ19Del/T790M, read-out: IC50, growth inhibition, Δ19Del/T790M
# [13] = BaF3 cell line stably transfected with EGFR L858R/T790M/C797S, read-out: L858R/T790M/ C797S growth inhibitory activity IC50
# [14] = BaF3 cell line stably transfected with EGFR Δ19Del, read-out: Δ19Del growth inhibitory activity IC50
# [15] = BaF3 cell line stably transfected with EGFR L858R, read-out: L858R growth inhibitory activity IC50
# [16] = BaF3 cell line stably transfected with EGFR L858R/T790M, read-out: L858R/ T790M growth inhibitory activity IC50
# [17] = BaF3 cell line stably transfected with EGFR Δ19Del/T790M/C797S, read-out: Δ19Del/T790M/ C797S growth inhibitory activity IC50
# [18] = BaF3 cell line stably transfected with EGFR Δ19Del/T790M, read-out: Δ19Del/ T790M growth inhibitory activity IC50
# T3 sequence (P00533 25-1210 L858R): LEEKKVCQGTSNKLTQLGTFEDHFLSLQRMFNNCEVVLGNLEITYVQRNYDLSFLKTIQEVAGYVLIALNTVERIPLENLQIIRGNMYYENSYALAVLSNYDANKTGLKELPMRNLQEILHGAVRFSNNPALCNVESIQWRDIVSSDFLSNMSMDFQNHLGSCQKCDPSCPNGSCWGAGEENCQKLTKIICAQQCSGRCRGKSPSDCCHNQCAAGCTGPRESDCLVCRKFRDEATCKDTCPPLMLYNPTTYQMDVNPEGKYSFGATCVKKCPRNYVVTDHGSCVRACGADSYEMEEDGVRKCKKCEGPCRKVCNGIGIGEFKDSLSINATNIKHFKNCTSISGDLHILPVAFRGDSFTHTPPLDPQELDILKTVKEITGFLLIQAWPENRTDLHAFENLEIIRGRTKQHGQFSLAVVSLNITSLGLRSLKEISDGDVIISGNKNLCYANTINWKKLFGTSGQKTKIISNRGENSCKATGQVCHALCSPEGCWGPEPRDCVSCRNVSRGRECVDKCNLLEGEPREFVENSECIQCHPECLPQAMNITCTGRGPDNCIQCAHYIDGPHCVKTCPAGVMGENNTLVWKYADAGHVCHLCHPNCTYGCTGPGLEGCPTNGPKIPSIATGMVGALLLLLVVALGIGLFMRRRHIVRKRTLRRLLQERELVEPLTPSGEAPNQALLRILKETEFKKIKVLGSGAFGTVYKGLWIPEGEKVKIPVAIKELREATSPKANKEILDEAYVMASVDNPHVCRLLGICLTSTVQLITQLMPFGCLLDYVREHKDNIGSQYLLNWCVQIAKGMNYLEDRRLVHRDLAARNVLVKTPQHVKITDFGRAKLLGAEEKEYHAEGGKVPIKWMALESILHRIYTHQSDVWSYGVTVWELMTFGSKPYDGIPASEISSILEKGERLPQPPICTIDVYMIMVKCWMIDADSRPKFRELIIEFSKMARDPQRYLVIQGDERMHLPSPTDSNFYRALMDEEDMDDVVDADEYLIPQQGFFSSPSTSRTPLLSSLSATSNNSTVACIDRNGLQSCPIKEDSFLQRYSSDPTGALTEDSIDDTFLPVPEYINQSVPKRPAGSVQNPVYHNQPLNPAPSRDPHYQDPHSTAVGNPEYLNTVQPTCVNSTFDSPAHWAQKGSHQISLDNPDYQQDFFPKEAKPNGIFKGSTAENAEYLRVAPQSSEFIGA
# T6 sequence (P00533 with tags, fused parts or gaps DEL746-750/T790M, form open): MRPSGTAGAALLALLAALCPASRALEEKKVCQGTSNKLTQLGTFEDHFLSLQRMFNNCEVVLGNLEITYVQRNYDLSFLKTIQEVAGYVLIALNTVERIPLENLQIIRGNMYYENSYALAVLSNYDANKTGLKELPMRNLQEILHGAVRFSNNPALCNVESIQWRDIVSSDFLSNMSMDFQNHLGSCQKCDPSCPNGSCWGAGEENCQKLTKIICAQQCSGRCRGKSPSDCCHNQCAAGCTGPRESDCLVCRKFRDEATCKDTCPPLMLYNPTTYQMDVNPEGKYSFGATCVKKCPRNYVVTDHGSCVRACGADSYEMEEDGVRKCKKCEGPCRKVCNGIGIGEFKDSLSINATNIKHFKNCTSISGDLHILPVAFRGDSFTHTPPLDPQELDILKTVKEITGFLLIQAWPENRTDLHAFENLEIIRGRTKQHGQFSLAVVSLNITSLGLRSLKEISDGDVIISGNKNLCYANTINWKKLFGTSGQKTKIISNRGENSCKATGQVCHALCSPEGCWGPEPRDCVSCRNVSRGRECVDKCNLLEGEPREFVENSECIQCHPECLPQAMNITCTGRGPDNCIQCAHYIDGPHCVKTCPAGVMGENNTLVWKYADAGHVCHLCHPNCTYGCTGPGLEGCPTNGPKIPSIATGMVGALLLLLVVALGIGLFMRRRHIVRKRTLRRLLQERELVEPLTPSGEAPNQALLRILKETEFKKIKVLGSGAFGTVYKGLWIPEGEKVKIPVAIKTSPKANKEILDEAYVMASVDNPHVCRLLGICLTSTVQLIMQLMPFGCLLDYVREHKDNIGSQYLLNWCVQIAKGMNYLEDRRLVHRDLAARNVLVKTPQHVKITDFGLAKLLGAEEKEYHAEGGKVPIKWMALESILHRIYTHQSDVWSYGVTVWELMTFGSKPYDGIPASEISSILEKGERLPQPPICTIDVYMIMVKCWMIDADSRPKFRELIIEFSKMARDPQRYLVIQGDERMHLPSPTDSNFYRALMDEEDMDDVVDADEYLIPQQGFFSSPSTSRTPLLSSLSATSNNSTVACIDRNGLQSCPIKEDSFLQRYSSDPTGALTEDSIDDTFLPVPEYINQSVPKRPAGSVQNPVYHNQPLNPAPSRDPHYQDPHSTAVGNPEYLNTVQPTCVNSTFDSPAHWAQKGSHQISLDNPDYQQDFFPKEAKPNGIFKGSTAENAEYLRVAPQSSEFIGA
# T1 sequence (P00533 25-1210 T790M/C797S/L858R): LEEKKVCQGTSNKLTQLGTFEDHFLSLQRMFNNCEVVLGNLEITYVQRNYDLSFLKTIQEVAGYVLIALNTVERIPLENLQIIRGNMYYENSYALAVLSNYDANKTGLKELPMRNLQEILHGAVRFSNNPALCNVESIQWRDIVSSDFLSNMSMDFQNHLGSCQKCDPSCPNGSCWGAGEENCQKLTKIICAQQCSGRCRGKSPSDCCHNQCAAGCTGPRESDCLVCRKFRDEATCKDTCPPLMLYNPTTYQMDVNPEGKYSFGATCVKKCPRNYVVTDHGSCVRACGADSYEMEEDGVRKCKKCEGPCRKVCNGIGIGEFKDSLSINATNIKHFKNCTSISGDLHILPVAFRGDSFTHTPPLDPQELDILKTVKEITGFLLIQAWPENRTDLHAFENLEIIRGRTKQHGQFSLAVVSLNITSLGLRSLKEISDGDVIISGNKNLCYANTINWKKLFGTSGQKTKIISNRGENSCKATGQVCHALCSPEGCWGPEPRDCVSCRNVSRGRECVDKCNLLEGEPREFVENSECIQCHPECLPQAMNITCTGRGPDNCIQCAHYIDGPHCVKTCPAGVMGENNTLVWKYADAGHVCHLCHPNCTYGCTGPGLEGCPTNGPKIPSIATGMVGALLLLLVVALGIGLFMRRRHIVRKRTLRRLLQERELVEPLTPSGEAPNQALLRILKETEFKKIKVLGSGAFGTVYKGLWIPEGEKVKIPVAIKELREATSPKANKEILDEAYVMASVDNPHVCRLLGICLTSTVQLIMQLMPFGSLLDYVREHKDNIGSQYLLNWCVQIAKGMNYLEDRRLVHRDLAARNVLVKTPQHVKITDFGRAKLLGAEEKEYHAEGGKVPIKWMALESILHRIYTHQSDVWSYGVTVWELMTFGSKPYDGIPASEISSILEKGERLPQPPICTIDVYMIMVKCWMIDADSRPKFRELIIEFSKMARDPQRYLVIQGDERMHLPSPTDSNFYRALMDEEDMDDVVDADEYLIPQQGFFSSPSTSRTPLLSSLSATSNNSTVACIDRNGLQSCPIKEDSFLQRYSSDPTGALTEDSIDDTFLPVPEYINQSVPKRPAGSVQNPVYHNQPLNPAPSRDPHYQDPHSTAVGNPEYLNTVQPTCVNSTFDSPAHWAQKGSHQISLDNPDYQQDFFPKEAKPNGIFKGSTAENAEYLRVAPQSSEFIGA
# T4 sequence (P00533 25-1210 T790M/L858R): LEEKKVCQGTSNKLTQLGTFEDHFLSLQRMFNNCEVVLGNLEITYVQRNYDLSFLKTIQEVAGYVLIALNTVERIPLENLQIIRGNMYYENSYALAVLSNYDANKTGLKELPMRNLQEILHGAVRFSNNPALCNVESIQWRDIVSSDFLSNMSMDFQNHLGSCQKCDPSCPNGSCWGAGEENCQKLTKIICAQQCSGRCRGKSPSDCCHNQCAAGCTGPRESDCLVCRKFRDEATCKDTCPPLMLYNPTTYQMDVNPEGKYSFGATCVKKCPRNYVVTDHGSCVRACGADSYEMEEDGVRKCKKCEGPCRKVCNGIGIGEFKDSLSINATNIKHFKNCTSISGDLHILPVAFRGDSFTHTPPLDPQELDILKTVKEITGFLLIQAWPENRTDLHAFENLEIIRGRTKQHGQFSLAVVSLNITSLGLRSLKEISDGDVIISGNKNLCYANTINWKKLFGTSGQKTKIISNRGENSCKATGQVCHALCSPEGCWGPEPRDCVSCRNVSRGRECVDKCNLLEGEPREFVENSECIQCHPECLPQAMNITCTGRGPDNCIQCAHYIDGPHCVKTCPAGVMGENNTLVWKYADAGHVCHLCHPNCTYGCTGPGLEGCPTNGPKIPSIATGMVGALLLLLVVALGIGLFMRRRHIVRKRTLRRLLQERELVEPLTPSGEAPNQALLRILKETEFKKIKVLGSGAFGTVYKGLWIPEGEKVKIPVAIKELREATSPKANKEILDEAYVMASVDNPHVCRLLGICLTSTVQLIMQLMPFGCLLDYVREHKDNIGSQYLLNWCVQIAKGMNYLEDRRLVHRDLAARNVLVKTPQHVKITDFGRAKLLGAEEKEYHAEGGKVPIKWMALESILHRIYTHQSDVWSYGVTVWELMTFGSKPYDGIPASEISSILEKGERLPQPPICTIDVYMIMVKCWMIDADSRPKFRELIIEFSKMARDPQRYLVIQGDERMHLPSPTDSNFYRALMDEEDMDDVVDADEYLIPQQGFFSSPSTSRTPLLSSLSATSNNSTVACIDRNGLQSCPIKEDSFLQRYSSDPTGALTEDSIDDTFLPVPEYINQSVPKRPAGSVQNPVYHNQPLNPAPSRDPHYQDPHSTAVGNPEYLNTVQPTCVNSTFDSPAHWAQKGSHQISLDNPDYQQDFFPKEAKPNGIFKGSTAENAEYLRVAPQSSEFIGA
"IC50 [1, 7] [nM]","IC50 [2, 8] [nM]","IC50 [3, 9] [nM]","IC50 [4, 10] [nM]","IC50 [5, 11] [nM]","IC50 [6, 12] [nM]","IC50 [1, 13] [nM]","IC50 [2, 14] [nM]","IC50 [3, 15] [nM]","IC50 [4, 16] [nM]","IC50 [5, 17] [nM]","IC50 [6, 18] [nM]",Structure (SMILES)
≤ 50,50 to 500,50 to 500,≤ 50,≤ 50,≤ 50,,,,,,,COc1cc(N2CCC(N3CCN(C)CC3)CC2)c(C2CC2)cc1Nc1ncc(Cl)c(Nc2ccc3nccnc3c2N(C)S(C)(=O)=O)n1 [Compound I-287]
50 to 500,50 to 500,≤ 50,50 to 500,50 to 500,50 to 500,,,,,,,COc1cc(N2CCC(N3CCN(C)CC3)CC2)c(C(C)C)cc1Nc1ncc(Cl)c(Nc2ccc3nccnc3c2N(C)S(C)(=O)=O)n1 [Compound I-288]
≤ 50,≤ 50,≤ 50,≤ 50,≤ 50,≤ 50,,,,,,,CCc1cc(Nc2ncc(Cl)c(Nc3ccc4nccnc4c3N(C)S(C)(=O)=O)n2)ccc1N1CCC(N2CCN(C)CC2)CC1 [Compound I-289]
50 to 500,500 to 2500,500 to 2500,50 to 500,50 to 500,50 to 500,,,,,,,C=Cc1cc(Nc2ncc([N+](=O)[O-])c(Nc3ccc4nccnc4c3N(C)S(C)(=O)=O)n2)c(OC(F)(F)F)cc1N1CCC(N2CCN(C)CC2)CC1 [Compound I-290]
500 to 2500,50 to 500,50 to 500,50 to 500,50 to 500,50 to 500,,,,,,,COc1cc(N2CCC(N3CCN(C)CC3)CC2)c(C(C)C)cc1Nc1ncc(C2CC2)c(Nc2ccc3nccnc3c2N(C)S(C)(=O)=O)n1 [Compound I-291]
50 to 500,50 to 500,50 to 500,≤ 50,50 to 500,≤ 50,,,,,,,COc1cc(N2CCC(N3CCN(C)CC3)CC2)c(C2CC2)cc1Nc1ncc(C2CC2)c(Nc2ccc3nccnc3c2N(C)S(C)(=O)=O)n1 [Compound I-292]
50 to 500,50 to 500,50 to 500,≤ 50,50 to 500,≤ 50,,,,,,,CCc1cc(Nc2ncc(C3CC3)c(Nc3ccc4nccnc4c3N(C)S(C)(=O)=O)n2)ccc1N1CCC(N2CCN(C)CC2)CC1 [Compound I-293]
50 to 500,50 to 500,50 to 500,50 to 500,≤ 50,50 to 500,,,,,,,CCS(=O)(=O)N(C)c1c(Nc2nc(Nc3ccc(N4CCC(N5CCN(C)CC5)CC4)cc3OC)ncc2Cl)ccc2nccnc12 [Compound I-294]
50 to 500,50 to 500,50 to 500,50 to 500,≤ 50,50 to 500,,,,,,,C=Cc1cc(Nc2ncc(Cl)c(Nc3ccc4nccnc4c3N(C)S(=O)(=O)CC)n2)c(OC(F)(F)F)cc1N1CCC(N2CCN(C)CC2)CC1 [Compound I-295]
50 to 500,50 to 500,50 to 500,50 to 500,500 to 2500,50 to 500,,,,,,,CCN(c1c(Nc2nc(Nc3ccc(N4CCC(N5CCN(C)CC5)CC4)nc3OC)ncc2Br)ccc2nccnc12)S(C)(=O)=O [Compound I-296]
500 to 2500,500 to 2500,50 to 500,50 to 500,500 to 2500,50 to 500,,,,,,,CCN(c1c(Nc2nc(Nc3cc(C)c(N4CCC(N5CCN(C)CC5)CC4)nc3OC)ncc2Br)ccc2nccnc12)S(C)(=O)=O [Compound I-297]
≤ 50,50 to 500,50 to 500,50 to 500,≤ 50,≤ 50,,,,,,,C=Cc1cc(Nc2ncc(Br)c(Nc3ccc4nccnc4c3N(CC)S(C)(=O)=O)n2)c(OC(F)(F)F)cc1N1CCC(N2CCN(C)CC2)CC1 [Compound I-298]
≤ 50,≤ 50,50 to 500,≤ 50,≤ 50,≤ 50,,,,,,,CCN(c1c(Nc2nc(Nc3cc(C)c(N4CCC(N(C)C)CC4)cc3OC)ncc2Br)ccc2nccnc12)S(C)(=O)=O [Compound I-299]
≤ 50,50 to 500,50 to 500,≤ 50,≤ 50,50 to 500,,,,,,,CCN(c1c(Nc2nc(Nc3cc(C)c(N4CCN(C)CC4)cc3OC)ncc2Br)ccc2nccnc12)S(C)(=O)=O [Compound I-300]
≤ 50,50 to 500,≤ 50,≤ 50,≤ 50,≤ 50,,,,,,,CCc1cc(Nc2ncc(Br)c(Nc3ccc4nccnc4c3N(CC)S(C)(=O)=O)n2)c(OC)cc1N1CCN(C)CC1 [Compound I-301]
≤ 50,50 to 500,50 to 500,≤ 50,50 to 500,≤ 50,,,,,,,CCN(c1c(Nc2nc(Nc3cc(C)c(N4CCC(N(C)C)C4)cc3OC)ncc2Br)ccc2nccnc12)S(C)(=O)=O (stereo not drawn) [Compound I-302]
,,,,,,≤ 50,50 to 500,50 to 500,50 to 500,≤ 50,50 to 500,COc1cc(N2CCC(N3CCN(C)CC3)CC2)ccc1Nc1ncc(Cl)c(Nc2ccc3nccnc3c2N(C2CC2)S(C)(=O)=O)n1 [Compound I-303]
,,,,,,50 to 500,50 to 500,50 to 500,≤ 50,50 to 500,≤ 50,C=Cc1cc(Nc2ncc(Cl)c(Nc3ccc4nccnc4c3N(C3CC3)S(C)(=O)=O)n2)c(OC(F)(F)F)cc1N1CCC(N2CCN(C)CC2)CC1 [Compound I-304]
,,,,,,50 to 500,50 to 500,50 to 500,≤ 50,50 to 500,50 to 500,COc1nc(N2CCC(N3CCN(C)CC3)CC2)ccc1Nc1ncc(Br)c(Nc2ccc3nccnc3c2N(C2CC2)S(C)(=O)=O)n1 [Compound I-305]
,,,,,,500 to 2500,500 to 2500,50 to 500,50 to 500,500 to 2500,50 to 500,COc1nc(N2CCC(N3CCN(C)CC3)CC2)c(C)cc1Nc1ncc(Br)c(Nc2ccc3nccnc3c2N(C2CC2)S(C)(=O)=O)n1 [Compound I-306]
,,,,,,50 to 500,500 to 2500,500 to 2500,50 to 500,50 to 500,50 to 500,C=Cc1cc(Nc2ncc(Br)c(Nc3ccc4nccnc4c3N(C3CC3)S(C)(=O)=O)n2)c(OC(F)(F)F)cc1N1CCC(N2CCN(C)CC2)CC1 [Compound I-307]
,,,,,,50 to 500,50 to 500,50 to 500,≤ 50,≤ 50,≤ 50,COc1cc(N2CCC(N3CCN(C)CC3)CC2)c(CC2CC2)cc1Nc1ncc(Br)c(Nc2ccc3nccnc3c2N(C2CC2)S(C)(=O)=O)n1 [Compound I-308]
,,,,,,≤ 50,50 to 500,≤ 50,≤ 50,≤ 50,≤ 50,COc1cc(N2CCN(C)CC2)c(C)cc1Nc1ncc(Br)c(Nc2ccc3nccnc3c2N(C2CC2)S(C)(=O)=O)n1 [Compound I-309]
,,,,,,≤ 50,50 to 500,≤ 50,≤ 50,≤ 50,≤ 50,CCc1cc(Nc2ncc(Br)c(Nc3ccc4nccnc4c3N(C3CC3)S(C)(=O)=O)n2)c(OC)cc1N1CCN(C)CC1 [Compound I-310]
,,,,,,≤ 50,50 to 500,50 to 500,≤ 50,≤ 50,≤ 50,COc1cc(N2CCC(N(C)C)CC2)c(C)cc1Nc1ncc(Br)c(Nc2ccc3nccnc3c2N(C2CC2)S(C)(=O)=O)n1 [Compound I-311]
,,,,,,≤ 50,50 to 500,50 to 500,≤ 50,≤ 50,≤ 50,COc1cc(N2CCC(N(C)C)C2)c(C)cc1Nc1ncc(Br)c(Nc2ccc3nccnc3c2N(C2CC2)S(C)(=O)=O)n1 (stereo not drawn) [Compound I-312]
